Results reported in patent US7314709B2, “Compositions and methods for detecting and quantifying COX-2 activity by lipoamino acid metabolism” (Vanderbilt University, priority 2002, dated 2008).
Where a chain is given by its changes, count along the chain named.

What was measured:
Format in all cases: biochemical, murine
mCOX-2 R120Q = molecular target: T1, mCOX-2 R120Q (Mus musculus, UniProt Q05769, R106Q); experiment: Initial O2 uptake rate with constriction site mutant R120Q; conditions: 200 nM enzyme; AA 100 μM, NAGly 200 μM
T1 construct: made in house; host or cells: Sf-9 insect cells
T1 sequence (Q05769 18-604 R106Q): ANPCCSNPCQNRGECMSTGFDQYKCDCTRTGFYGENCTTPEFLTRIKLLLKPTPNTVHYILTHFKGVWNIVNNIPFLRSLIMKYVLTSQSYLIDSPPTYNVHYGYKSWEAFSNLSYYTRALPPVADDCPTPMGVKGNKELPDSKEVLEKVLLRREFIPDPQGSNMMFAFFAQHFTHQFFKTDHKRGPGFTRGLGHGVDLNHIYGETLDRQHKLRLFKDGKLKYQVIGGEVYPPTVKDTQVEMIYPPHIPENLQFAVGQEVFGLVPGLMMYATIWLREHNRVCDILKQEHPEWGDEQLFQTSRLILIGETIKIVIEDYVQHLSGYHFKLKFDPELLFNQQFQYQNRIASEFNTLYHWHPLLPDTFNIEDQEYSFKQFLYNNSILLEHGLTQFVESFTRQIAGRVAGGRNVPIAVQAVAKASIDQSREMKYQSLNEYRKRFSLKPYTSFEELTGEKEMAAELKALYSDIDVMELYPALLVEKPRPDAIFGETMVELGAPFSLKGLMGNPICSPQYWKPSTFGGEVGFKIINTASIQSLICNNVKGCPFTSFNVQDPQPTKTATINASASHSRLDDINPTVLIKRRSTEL
Description: (§1) Enzymology: COX-1 was purified from ram seminal vesicles as previously described. Site-directed mutagenesis of COX-2 was performed as described previously. Recombinant COX-2 enzymes were expressed in Sf-9 insect cells and purified by ion-exchange chromatography and gel filtration as previously described. Apo-enzymes were reconstituted with hematin prior to activity assays.
(§2) COX activity was quantified as previously described. Initial reaction velocity data were obtained from the linear portion of the oxygen uptake curves. Oxygraph data were analyzed by nonlinear regression with Enzyme Kinetics 1.5 software (Trinity Software, Campton, N.H.).
(§3) At the bottom of the substrate (and inhibitor) binding site, there is a hydrogen bonding network comprised of residues Arg-120, Tyr-355, and Glu524, that form a constriction which is present in both COX isoforms. These residues contribute to the binding of the carboxylate in both AA and NSAIDs, and the glycerol moiety of 2-AG [12,23-27].

mCOX-2 E524L = molecular target: T2, mCOX-2 E524L (Mus musculus, UniProt Q05769, E510L); experiment: Initial O2 uptake rate with constriction site mutant E524L; conditions: 200 nM enzyme; AA 100 μM, NAGly 200 μM
T2 construct: made in house; host or cells: Sf-9 insect cells
T2 sequence (Q05769 18-604 E510L): T1 sequence (Q05769 18-604 R106Q) with Q89R, E493L
Description: as §1, §2, §3

mCOX-2 V523I = molecular target: T3, mCOX-2 V523I (Mus musculus, UniProt Q05769, V509I); experiment: Initial O2 uptake rate with side pocket mutant V523I; conditions: 200 nM enzyme; AA 100 μM
T3 construct: made in house; host or cells: Sf-9 insect cells
T3 sequence (Q05769 18-604 V509I): T1 sequence (Q05769 18-604 R106Q) with Q89R, V492I
Description: as §1, §2
(§4) Previous studies have identified residues in the side pocket of COX-2, especially Arg-513, as critical determinants of 2-AG oxygenation by COX-2 [13]. […] (FIG. 5).

mCOX-2 R513H/V523I = molecular target: T4, mCOX-2 R513H/V523I (Mus musculus, UniProt Q05769, R499H/V509I); experiment: Initial O2 uptake rate with side pocket double mutant R513H/V523I; conditions: 200 nM enzyme; AA 100 μM, NAGly 200 μM
T4 construct: made in house; host or cells: Sf-9 insect cells
T4 sequence (Q05769 18-604 R499H/V509I): T1 sequence (Q05769 18-604 R106Q) with Q89R, R482H, V492I
Description: as §1, §2, §4

reduction in initial rate of oxygenation compared with wild-type (mCOX-2 R120Q): < 3 fold
reduction in initial rate of oxygenation compared with wild-type (mCOX-2 E524L): < 3 fold
effect of mutation on ability to metabolize AA (mCOX-2 V523I): did not greatly affect
effect of mutation on oxygenation rate (mCOX-2 R513H/V523I): did not greatly affect
Structure (SMILES): CCCCC/C=C\C/C=C\C/C=C\C/C=C\CCCC(=O)O [AA, arachidonic acid]
